Measured values published in paper PMC6169518 (Environmental science & technology, 2016).
Several values for one entry are separate records, joined by “and”; a condition that tells them apart may be missing. Equal values may be shown once.

Key:
recombinant human CYPs = test: Oxidation of FLC by a panel of human recombinant CYP isozymes; format: in vitro ADME; settings: 50 nM recombinant human CYPs, 60 min
[1] = test system: glutathione S-transferase (GST)
mice = test: Toxicity of FLC in mice fed diet containing 0.5% FLC for 10 days; format: in vivo; settings: diet containing 0.5% FLC vs control diet
[2] = test system: Chinese Hamster Ovary K1 (CHO-K1) cells; settings: cited from earlier work
[3] = test system: microsomal GST in human liver microsomes (HLM); test: Kinetic analysis of GSH conjugation; format: in vitro ADME
[4] = rats and rabbits; cited from earlier work
[5] = test system: microsomal GST in mouse liver microsomes (MLM); test: Kinetic analysis of GSH conjugation; format: in vitro ADME
[6] = test system: cytosolic GST in human liver cytosols (HLC); test: Kinetic analysis of GSH conjugation; format: in vitro ADME; settings: FLC-SG formation, Michaelis-Menten
[7] = Quantification of FLC in mouse serum after single oral administration; format: in vivo; settings: mice
[8] = 24-h excretion of unchanged FLC in mouse urine, feces and bile; format: in vivo; settings: mice, oral, 0-24 h
[9] = test system: cytosolic GST in mouse liver cytosols (MLC); test: Kinetic analysis of GSH conjugation; format: in vitro ADME; settings: FLC-SG formation, Michaelis-Menten
[10] = test system: Human liver microsomes (HLM); test: Human liver microsome incubation of FLC; settings: 60 min
rats = settings: 45 and 90 days of dosing and last recovery day; cited from earlier work
[11] = HLM, FLC-SG formation, Michaelis-Menten
[12] = MLM, FLC-SG formation, Michaelis-Menten

O=C1C(Cl)C(CCl)C(O)N1c1cccc(C(F)(F)F)c1 (stereo not shown) [M5–2]
CYP isozymes catalysing formation of the metabolite from FLC (recombinant human CYPs): CYP1A1, 1A2, and 3A4

O=C1C(Cl)C(CO)CN1c1cccc(C(F)(F)F)c1 (stereo not shown) [M3]
CYP isozymes catalysing formation of the metabolite from FLC (recombinant human CYPs): CYP1A1, 1A2, 2C8, 2C9, 2E1, and 3A4

O=C1C(Cl)C(CCl)C(O)N1c1cccc(C(F)(F)F)c1 (stereo not shown) [M5–1]
CYP isozymes catalysing formation of the metabolite from FLC (recombinant human CYPs): CYP1A1, 1A2, and 3A4

N[C@@H](CCC(=O)N[C@@H](CSC1C(=O)N(c2cccc(C(F)(F)F)c2)CC1CCl)C(=O)NCC(=O)O)C(=O)O (stereo partly shown) [M13]
M13 detected in buffer ([1]; buffer with GSH, without microsomes or cytosols): trace amount
formation of M13 in microsomes relative to cytosols ([1]; microsomes vs cytosols, with GSH): more than 2 fold

O=C1C(Cl)C(CCl)CN1c1cccc(C(F)(F)F)c1 (racemic) [FLC, (3RS,4RS;3RS,4SR)-3-chloro-4-chloromethyl-1-(α,α,α-tri-fluoro-m-tolyl)-2-pyrrolidone]
Alanine transaminase (ALT) (mice): elevated significantly
triglycerides (mice; hepatic): slightly increased
aqueous peroxide (mice; liver): slightly increased
DNA damage [2]: induce single-strand DNA breaks
maximum clearance (Vmax/Km) of GSH conjugation, HLM over HLC ([3]; HLM vs HLC): approximately 5.5 fold
Km [3, 11]: 374 µM
Vmax [3, 11]: 5.63 pmol·min^−1·mg protein^−1
excretion rate of unchanged FLC [4]: less than 1.5 % of the applied dose
maximum clearance (Vmax/Km) of GSH conjugation, MLM over MLC ([5]; MLM vs MLC): approximately 11.2 fold
Km [5, 12]: 367 µM
Vmax [5, 12]: 9.5 pmol·min^−1·mg protein^−1 and 9.50 pmol·min^−1·mg protein^−1
Km [6]: 148 µM
Vmax [6]: 0.404 pmol·min^−1·mg protein^−1
concentration of FLC in serum ([7]; high dose group (50 mg/kg oral), 4 h post-dose): 8020 ± 2810 nM
concentration of FLC in serum ([7]; high dose group (50 mg/kg oral), 24 h post-dose): 285 ± 76 nM
concentration of FLC in serum ([7]; low dose group (5 mg/kg oral), 4 h post-dose): 941 ± 220 nM
concentration of FLC in serum ([7]; low dose group (5 mg/kg oral), 24 h post-dose): 53 ± 25 nM
24-h excretion of FLC in bile ([8]; bile): undetectable
24-h excretion rate of FLC in feces ([8]; feces): 1.21−1.40%
Vmax [9]: 4.65 pmol·min^−1·mg protein^−1
parent compound consumed ([10]; HLM supplemented with NADPH): Approximately 30%
more consumption of FLC ([10]; coincubation with GSH, NADPH and HLM): 40%
histopathological observations (rats): testis and epididymis lesions were consistently observed
